Data: US20160178628A1, “Electrical Cell-substrate Impedance Sensor (ECIS)” (priority 2015, published 2016)

What was measured:
[1] = system: tubulin assemblies of MCF-7 cells; assay: Confocal microscopy of tubulin assemblies of MCF-7 cells; type: cell-based, human
Experimental: In addition, an un-treated control sample was prepared as reference for comparison. Then, samples were washed with PBS and permeabilized with microtubule stabilizing buffer [80 mM PIPES-KOH (pH 6.8), 5 mM EGTA, and 1 mM MgCl2 containing 0.5% Triton X-100] for 5 min at room temperature before being fixed with chilled absolute methanol for 10 min at −20° C. Thereafter, the fixed cells were washed and incubated with monoclonal mouse anti-α-tubulin antibody (Sigma Co.) for 1 hour at room temperature followed by incubation with FITC-conjugated antimouse IgG antibody (Santa Cruz Biotechnology). The stained cells were mounted with Vectashield (Vector Laboratories, Burlingame, Calif.) and observed by confocal microscopy.

MCF-7 cells = assay: SiNW-ECIS impedance and capacitance measurement of drug-treated MCF-7 cells; type: cell-based, human; details: for change of norm in impedance of treated cells, T1 vs. T2: 2 hours vs. 6 hours after drug incubation; for norm of capacitive changes, control sample more than treated sample: 6 hours after drug incubation (T2)
Experimental: In this example, the diagnostic response of cells membrane to extremely low dose of antitubulin drugs is investigated. Initially, MCF-7 cell lines, isolated from grade I human breast tumors, were obtained from the National Cell Bank of Iran (Pasteur Institute). Then, cells were maintained in a CO2 incubator (37° C., 5% CO2) in RPMI-1640 medium supplemented with 5% fetal bovine serum, and 1% penicillin/streptomycin. The fresh medium was replaced every other day. Then, the cultured cells were dropped on the surface of the SiNW-ECIS, designed and fabricated pursuant to teachings of the present application. Prior to each experiment, cells were trypsinized to be detached from the substrate and resuspended on the SiNW surface. To minimize the effect of trypsinization, the procedure may last for less than 4 minutes at room temperature of about 20° C. The samples were held in an incubator for about 4 hours to achieve cells attachment on the SiNWs. Thereafter, the ABZ drug with low concentrations of about 2.1 nano-moles per liter and the PTX drug with low concentrations of about 0.1 nano-moles per liter were added to individual samples. Finally, the signal recording and biological assays were investigated about 2 hours and 6 hours after the drug treatment (6 hours and 10 hours after the beginning of culturing process).
Referring to FIGS. 12A-12G, comparative normalized diagrams of impedance (designated by ΔZ % and represented by solid black lines) and capacitance changes (designated by ΔC % and represented by dashed grey lines) are illustrated for MCF-7 cells seeded on SiNW electrodes after treating by 2.1 nano-moles per liter of ABZ and 0.1 nano-moles per liter of PTX. The time interval between the drug incubation and the signal extraction are 2 hours (designated by T1) and 6 hours (designated by T2). In addition, the same diagrams are plotted for control sample prepared with no drug treatment stage.
According to the method described in the present example, the samples were maintained in an incubator so that the signal extraction was repeated 10 hours after cells dropping (6 hours after drug incubation for treated samples) to monitor the time evolution of drug induced MT polymerization/depolymerization on bioelectrical response of the membrane.

[2] = MCF-7, PTX 0.1 nano-moles per liter, 2 hours after treatment (T1)
[3] = MCF-7, PTX 0.1 nano-moles per liter
[4] = MCF-7, ABZ 2.1 nano-moles per liter, 2 hours after drug incubation (T1)
[5] = MCF-7, ABZ 2.1 nano-moles per liter

Compound	spindle / microtubule morphology (confocal image) ([1]; MCF-7, PTX 0.1 nano-moles per liter, 2 hours after treatment)	spindle / microtubule morphology (confocal image) ([1]; MCF-7, PTX 0.1 nano-moles per liter, 6 hours after treatment)	variation in mean capacitance of the sensor versus control (MCF-7 cells; [2])	variation in mean impedance of the sensor versus control (MCF-7 cells; [2])	change of norm in impedance of treated cells, T1 vs. T2 (MCF-7 cells; [3]) [%]	norm of capacitive changes, control sample more than treated sample (MCF-7 cells; [3]) [%]	spindle / microtubule morphology (confocal image) ([1]; MCF-7, ABZ 2.1 nano-moles per liter, 2 hours after treatment)	spindle / microtubule morphology (confocal image) ([1]; MCF-7, ABZ 2.1 nano-moles per liter, 6 hours after treatment)	changes in membrane impedance versus control (MCF-7 cells; [4]) [%]	variations in capacitance of the sensor versus control (MCF-7 cells; [4]) [%]	change of norm in impedance of treated cells, T1 vs. T2 (MCF-7 cells; [5])	norm of capacitive changes, control sample more than treated sample (MCF-7 cells; [5])
CC(=O)O[C@H]1C(=O)[C@@]2(C)[C@H]([C@H](OC(=O)c3ccccc3)[C@]3(O)C[C@H](OC(=O)[C@H](O)[C@@H](NC(=O)c4ccccc4)c4ccccc4)C(C)=C1C3(C)C)[C@]1(OC(C)=O)CO[C@@H]1C[C@@H]2O [PTX, Paclitaxel]	aggregated spindles	increased aggregation in MT spindles	about 60%	about 50%	15	~75	–	–	–	–	–	–
CCCSc1ccc2nc(NC(=O)OC)[nH]c2c1 [ABZ, Albendazole]	–	–	–	–	–	–	abnormally reduced numbers of spindles or monopolar (monoaster) spindles	monoastered MTs are observable	25	70	about 60%	about 90%
